Source: PubChem BioAssay AID1963848 (Molecular Pharmacology Branch, DTP, NCI, 2024)
“And” between values parts separate entries of the source, which are not always exact repeats. Equal entries are not always repeated.

Tested on: 379773-124-R-J2-PDC spheroid viability
Experiment: Anticancer human tumor 379773-124-R-J2-PDC patient-derived endometrial carcinoma cell line growth inhibition [POLQ]
Conditions: spheroids with HUVEC and MSC; for viability, T/C: stronger effect = lower value
Protocol: Multicellular complex tumor spheroid response to Polymerase (POL) inhibitors (novobiocin, ART-558, RP6685) in combination with a variety of drugs and investigational agents in selected tumor cell lines
The POL inhibitors (novobiocin, ART-558, and RP6685) were evaluated both individually and in combination with standard of care and investigational anticancer small molecules within a complex spheroid model of solid tumors. . Complex spheroids include a stromal component modeled by human endothelial cells (HUVEC) and fibroblasts modeled by human mesenchymal stem cells (MSCs). The concentration ranges selected for each drug and investigational agent were based upon clinically achievable concentrations if the clinical Cmax of the agent was known.
Compounds. The drugs and investigational agents: novobiocin (NSC847541), ART-558 (NSC835418), RP-6685 (NSC848927), peposertib (NSC802822), ceralasertib (NSC780249), elimusertib (NSC800525), camonsertib (NSC841442), AZD-1390 (NSC803789), olaparib (NSC753686), talazoparib (NSC767125), rucaparib (NSC756644), sotorasib (NSC818433), MRTX-1133 (NSC836407), SN-38 (NSC673596), topotecan (NSC609699), epotoside (NSC141540), doxorubicin (NSC123127), gemcitabine (NSC613327), 5-fluorouracil (NSC19893), paclitaxel (NSC125973), vemurafenib (NSC761431), MSA-2 (NSC828583), SN-011 (NSC837082), adavosertib (NSC754352), prexasertib (NSC758257), carboplatin (NSC241240) and oxaliplatin (NSC266046), were obtained from the National Cancer Institute (NCI) Developmental Therapeutics Program Chemical Repository (21). The FDA-approved anticancer drug set is available from the Developmental Therapeutics Program at https://dtp.cancer.gov/organization/dscb/obtaining/. […] The stock solutions were prepared in dimethyl sulfoxide (DMSO, Sigma-Aldrich, St. Louis, MO, cat. D2650), except for the platinum compounds which were prepared in saline (Quality Biological, Gaithersburg, MD, cat. 114-055-101), at 800-fold the tested concentration and stored at -70 degrees C prior to their use. All drugs and investigational agents were tested over a range starting from a high concentration at or near the clinical Cmax and decreasing in half-log increments. If the clinical Cmax for an agent had not been determined, the highest concentration tested was 10 microM, except for SN-38, which was tested at a high concentration of 1 microM.
Cell Culture. All cells were maintained in an incubator at 37 degrees C and 5% CO2 with 95% humidity. The PDC lines were cultured according to standard operating procedures established by the NCI PDMR (https://pdmr.cancer.gov). Table 3 of the manuscript, lists the cell lines along with the number of the three cell types plated to form the mct-spheroids and media for tumor cell growth. After thawing, all PDC lines, except 997537-175-T-J1-PDC and 415267-285-R-J2-PDC, were cultured in Matrigel-coated flasks prepared with a working solution of 1X Ham's F-12 nutrient mix, without supplementation (Thermo Fisher Scientific, cat. 11765054), 100 U/mL penicillin-streptomycin (Thermo Fisher Scientific, cat. 15140122), and 2.5% Matrigel (Corning Inc., Corning, NY, cat. 354248) for the first three passages. The two PDC lines 997537-175-T-J1-PDC and 415267-285-R-J2-PDC were cultured on uncoated flasks. The 857933-349-R-J2-PDC line was cultured in 6C/Colon 1B media containing advanced DMEM/F-12 (Thermo Fisher Scientific, cat. 12634028), 10 mM HEPES (Thermo Fisher Scientific, cat. 15630080), 1X GlutaMAX supplement (Thermo Fisher Scientific, cat. 35050061), 0.1 mg/mL primocin (InvivoGen, San Diego, CA, cat. ant-pm-2), 10% defined fetal bovine serum, heat inactivated (HyClone Laboratories Inc., Logan, UT, cat. SH30070.03HI), 50% L-WRN conditioned media (ATCC, cat. CRL-3276), 1.25 mM N-Acetyl-L-cysteine (Sigma-Aldrich, cat. A9165), 10 mM nicotinamide (Sigma-Aldrich, cat. N0636), 1X B-27 supplement (Thermo Fisher Scientific, cat. 17504044), 1X N-2 supplement (Thermo Fisher Scientific, cat. […]

[1] = compound alone, run of 10/31/2023
[2] = compound alone, run of 11/06/2023
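Note: spheroids exposed to drugs for seven days before readout.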
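Throughout, for viability, T/C: percent viability relative to DMSO vehicle control taken as 100%.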

| Compound | viability, T/C (compound 0.0316 µM) | viability, T/C (compound 0.316 µM) | viability, T/C (compound 3.16 µM) | viability, T/C (compound 10 µM) | IC50 [1] | viability, T/C (compound 0.1 µM) | viability, T/C (compound 1 µM) | IC50 (curve of compound) | viability, T/C (compound 0.00316 µM) | viability, T/C (compound 0.01 µM) | IC50 [2] | viability, T/C (compound 0.000316 µM) | viability, T/C (compound 0.001 µM) |
| --- | --- | --- | --- | --- | --- | --- | --- | --- | --- | --- | --- | --- | --- |
| COC1C(OC(N)=O)C(O)C(Oc2ccc3c(O)c(NC(=O)c4ccc(O)c(CC=C(C)C)c4)c(=O)oc3c2C)OC1(C)C (stereo not given) | 83.6% [middle of 13 runs] | 88.3% [middle of 13 runs] | 89.8% [middle of 13 runs] | 81.1% [middle of 13 runs] | > 10 µM | – | – | – | – | – | – | – | – |
| COc1cc(C2c3cc4c(cc3C(OC3OC5COC(C)OC5C(O)C3O)C3COC(=O)C23)OCO4)cc(OC)c1O (stereo not given) | 84.9% and 99% and 87% | 89.5% and 90% and 75.2% | 14.7% and 19.1% and 14.3% | 10.1% (2×) and 14.7% | – | 86.8% and 96.4% and 75.6% | 64.8% and 72.1% and 65% | 1.4 µM and 1.62 µM | – | – | – | – | – |
| COc1cc2cc(C(=O)CCC(=O)O)sc2cc1OC | 89.3% and 91.6% (2×) | 85.8% and 90.2% and 80.9% | 105% and 95.3% and 92.9% | 91.6% and 79.1% and 73.2% | – | 85.4% and 96.8% and 107% | 94.6% and 96.7% and 94% | > 10 µM | – | – | – | – | – |
| COc1ccc([C@@H](O)c2cc(-c3ncnc4cc(N5CCOCC5)ccc34)c(F)cc2Cl)nn1 | 92.5% and 98.9% and 94.2% | 79.4% and 93.5% and 84.7% | 67.8% and 76.8% and 86.3% | 37.9% and 43.7% and 38.1% | – | 91.3% and 93.2% and 82.2% | 99.3% and 110% and 87.4% | 6.28 µM and 8.03 µM and 7.52 µM | – | – | – | – | – |
| COc1cccc(OCCCN)c1-c1cc(Nc2cnc(C#N)cn2)n[nH]1 | 2.75% and 2.85% and 3% | 2.05% and 2.52% and 2.6% | – | – | – | 2.5% and 2.23% and 2.01% | 1.38% and 1.84% and 2.29% | 0.00455 µM and 0.00602 µM and 0.00641 µM | 71.1% and 84.4% and 94.5% | 4.45% and 22.9% and 22% | – | – | – |
| COc1cccc2c1C(=O)c1c(O)c3c(c(O)c1C2=O)CC(O)(C(=O)CO)CC3OC1CC(N)C(O)C(C)O1 (stereo not given) | 78.1% and 95.3% and 81.8% | 7.16% and 12.4% and 5.32% | 1.99% and 2.49% and 0.93% | 0.82% and 0.3% and 0.62% | – | 25% and 40.3% and 29.4% | 7.82% and 10.6% and 5.98% | 0.0581 µM and 0.0807 µM and 0.0636 µM | – | – | – | – | – |
| Cc1cccc(N(C)C(=O)C2C(O)CCN2c2nc(C)cc(C(F)(F)F)c2C#N)c1 (stereo not given) | 89.8% [middle of 13 runs] | 88.2% [middle of 13 runs] | 89% [middle of 13 runs] | 92.7% [middle of 13 runs] | > 10 µM | 90.7% [middle of 13 runs] | 88.2% [middle of 13 runs] | – | – | – | > 10 µM | – | – |
| Cn1ncnc1[C@H]1c2n[nH]c(=O)c3cc(F)cc(c23)N[C@@H]1c1ccc(F)cc1 | 69.2% and 76.9% and 80.9% | – | – | – | – | 51.7% and 51.5% and 63.7% | – | > 0.1 µM | 95.8% and 99.7% and 71.6% | 80.2% and 93.1% and 88.5% | – | 87.2% and 92.3% and 89.2% | 84% and 90% and 91.3% |
| Nc1ccc(C#CCN(C(=O)Cc2ncc(C(F)(F)F)cc2C(F)(F)F)c2ccc(F)cc2)nn1 | 91.8% [middle of 13 runs] | 93.2% [middle of 13 runs] | 94.9% [middle of 12 runs] | 91.4% [middle of 13 runs] | – | 92.8% [middle of 13 runs] | 91.9% [middle of 13 runs] | – | – | – | > 10 µM | – | – |
| Nc1ccn(C2OC(CO)C(O)C2(F)F)c(=O)n1 (stereo not given) | 25.4% and 19.1% and 15.5% | 8.47% and 12.9% and 7.5% | 10.8% and 13.3% and 10.3% | 7.47% and 10.7% and 7.2% | – | 8.86% and 11.2% and 9% | 10.6% and 10.1% and 9.75% | < 0.0316 µM | – | – | – | – | – |
| O=C(Nc1ccc(O)c(NS(=O)(=O)c2ccc(F)cc2)c1)c1ccc(-c2ccccc2)cc1 | 98.6% and 86.4% and 88.8% | 97.9% and 93.9% and 76.7% | 91.6% and 97.1% and 84.3% | 77.9% and 78.2% and 65.2% | – | 96% and 86.4% and 90.7% | 105% and 82.9% and 109% | > 10 µM | – | – | – | – | – |
| O=C(c1cc(Cc2n[nH]c(=O)c3ccccc23)ccc1F)N1CCN(C(=O)C2CC2)CC1 | 90.8% and 82.3% and 93.3% | 74.1% and 91.5% and 88.4% | 86.8% and 84.9% and 86.2% | 44.5% and 34.6% and 49.8% | – | 87% and 88.1% and 91.8% | 75.1% and 96.4% and 97.2% | 8.48 µM and 7.08 µM and > 10 µM | – | – | – | – | – |
| O=c1[nH]cc(F)c(=O)[nH]1 | 99.4% and 89.8% and 84.2% | 87.7% and 83.8% and 83.7% | 80.8% (2×) and 87.2% | 54.3% and 51.3% and 50.9% | – | 81.4% and 94.1% and 74.5% | 93.3% and 88.7% and 90.6% | > 10 µM | – | – | – | – | – |
